Source: BindingDB's records for doi:10.1016/j.bmcl.2010.12.114 (Ligand Pharmaceuticals, 2011)

Assay: Inhibition of human CXCR3 by chemotaxis assay

In the case of `C[C@H]1CN(c2ncc(C(=O)NCc3ccc(F)c(F)c3)cc2Cl)CCN1C1CCN(Cc2ccc(Cl)cc2)CC1` [(S)-5-chloro-6-(4-(1-(4-chlorobenzyl)piperidin-4-yl)-3-methylpiperazin-1-yl)-N-(3,4-difluorobenzyl)nicotinamide], the IC50 is reported as 0.023 µM.
